Results on 25 molecules are retold here after patent US20100068181A1, “PYRROLO [3, 2-A] PYRIDINE DERIVATIVES FOR INHIBITING KSP KINESIN ACTIVITY” (Schering Corporation, priority 2006, published 2010).

The structures appear in SMILES notation.

In the test the target is T1, KSP (Homo sapiens, UniProt P52732).
T1 sequence (P52732 1-1056): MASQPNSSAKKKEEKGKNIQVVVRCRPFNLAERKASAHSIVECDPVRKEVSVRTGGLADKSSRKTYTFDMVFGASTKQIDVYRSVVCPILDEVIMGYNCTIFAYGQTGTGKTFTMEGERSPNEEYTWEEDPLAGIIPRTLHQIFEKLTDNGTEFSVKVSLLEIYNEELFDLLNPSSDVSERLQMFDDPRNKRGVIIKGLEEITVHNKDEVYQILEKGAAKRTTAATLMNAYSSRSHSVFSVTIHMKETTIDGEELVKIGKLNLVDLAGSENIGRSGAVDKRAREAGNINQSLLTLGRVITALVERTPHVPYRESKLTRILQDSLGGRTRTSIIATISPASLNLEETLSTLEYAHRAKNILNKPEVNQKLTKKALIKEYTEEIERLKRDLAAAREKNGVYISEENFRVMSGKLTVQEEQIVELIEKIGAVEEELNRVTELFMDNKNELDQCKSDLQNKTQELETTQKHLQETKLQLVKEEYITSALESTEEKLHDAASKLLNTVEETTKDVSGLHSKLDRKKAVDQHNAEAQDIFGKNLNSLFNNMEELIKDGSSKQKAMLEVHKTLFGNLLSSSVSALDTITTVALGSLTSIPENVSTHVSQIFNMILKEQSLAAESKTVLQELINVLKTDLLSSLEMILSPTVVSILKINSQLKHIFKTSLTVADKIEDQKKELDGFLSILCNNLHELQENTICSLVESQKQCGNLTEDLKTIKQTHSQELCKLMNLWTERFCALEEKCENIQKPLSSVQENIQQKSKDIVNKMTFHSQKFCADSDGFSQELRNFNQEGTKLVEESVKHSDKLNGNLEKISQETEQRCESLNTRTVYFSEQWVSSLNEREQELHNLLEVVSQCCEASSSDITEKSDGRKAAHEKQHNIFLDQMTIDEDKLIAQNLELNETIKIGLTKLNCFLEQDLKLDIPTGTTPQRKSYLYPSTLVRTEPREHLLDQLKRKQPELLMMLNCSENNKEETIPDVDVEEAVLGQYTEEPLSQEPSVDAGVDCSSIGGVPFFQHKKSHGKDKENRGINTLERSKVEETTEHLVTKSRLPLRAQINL
Kind of test: KSP inhibitory activity, end-point assay. To be noted: KSP inhibitory activity based on end-point assay; read-out: IC50 Rating. The class given is biochemical. The text has this: The inhibitory activity of the present compounds towards KSP may be assayed by methods known in the art, for example, by using the methods as described in the examples.
Usually IC50 stands for the concentration at which inhibition is half-maximal. Turning to `CC(C)(C)C1CCc2nc3cc(C(=O)NNc4ccccn4)[nH]c3cc2C1` (stereo not shown) [Example 101], the IC50 fell in the range of 0.1 to 1 µM.

Regarding `CC(C)(C)C1CCc2nc3cc(C(=O)Nc4ccc(O)cc4)[nH]c3cc2C1` (stereo not shown) [Example 102], the IC50 lay in the range of 0.1 to 1 µM. With `CC(C)(C)[C@@H]1CCc2nc3cc(C(=O)Nc4ccc(O)cc4)[nH]c3cc2C1` [Example 103A], the IC50 fell in the range of 0.1 to 1 µM.

Take `CC(C)(C)[C@H]1CCc2nc3cc(C(=O)Nc4ccc(O)cc4)[nH]c3cc2C1` [Example 103B]: the IC50 is over 10 µM. In the case of `CC(C)(C)C1CCc2nc3cc(C(=O)Nc4ccc(N)nc4)[nH]c3cc2C1` (stereo not shown) [Example 104], the IC50 lay within 0.1 to 1 µM. Regarding `CC(C)(C)C1CCc2nc3cc(C(=O)Nc4ccc(CCO)cc4)[nH]c3cc2C1` (stereo not shown) [Example 105], the IC50 lay within 1 to 10 µM. Regarding `CC(C)(C)C1CCc2nc3cc(C(=O)N[C@H](CO)c4ccccc4)[nH]c3cc2C1` (stereo partly shown) [Example 106], the IC50 lay in the range of 0.1 to 1 µM. To `CC(C)(C)C1CCc2nc3cc(C(=O)N[C@@H](CO)c4ccccc4)[nH]c3cc2C1` (stereo partly shown) [Example 107] belongs over 10 µM; to `CC(C)(C)C1CCc2nc3cc(C(=O)N[C@H](CO)Cc4ccccc4)[nH]c3cc2C1` (stereo partly shown) [Example 108], over 10 µM; to `CC(C)(C)C1CCc2nc3cc(C(O)c4ccccc4)[nH]c3cc2C1` (stereo not shown) [Example 109], over 10 µM. To `COc1cccc(C(O)c2cc3nc4c(cc3[nH]2)CC(C(C)(C)C)CC4)c1` (stereo not shown) [Example 110] belongs over 10 µM; to `COc1ccc(C(O)c2cc3nc4c(cc3[nH]2)CC(C(C)(C)C)CC4)cc1` (stereo not shown) [Example 111], over 10 µM; to `CC(C)(C)C1CCc2nc3cc(C(O)c4cccc(Cl)c4)[nH]c3cc2C1` (stereo not shown) [Example 112], over 10 µM. As to `CCC(O)c1cc2nc3c(cc2[nH]1)CC(C(C)(C)C)CC3` (stereo not shown) [Example 113], the IC50 lay within 0.1 to 1 µM. For `C=CCC(O)c1cc2nc3c(cc2[nH]1)CC(C(C)(C)C)CC3` (stereo not shown) [Example 114], the IC50 was in the range of 0.1 to 1 µM. As to `CC(C)(C)C1CCc2nc3c(-c4cccc(O)c4)c(C(N)=O)[nH]c3cc2C1` (stereo not shown) [Example 115], the IC50 was 1 to 10 µM. As for `COc1cccc(-c2c(C(N)=O)[nH]c3cc4c(nc23)CCC(C(C)(C)C)C4)c1` (stereo not shown) [Example 116], the IC50 was over 10 µM. Regarding `CC(C)(C)C1CCc2nc3c(-c4cccc(OC(F)(F)F)c4)c(C(N)=O)[nH]c3cc2C1` (stereo not shown) [Example 117], the IC50 was over 10 µM. To `COc1ccc(OC)c(-c2c(C(N)=O)[nH]c3cc4c(nc23)CCC(C(C)(C)C)C4)c1` (stereo not shown) [Example 118] belongs over 10 µM. With `CC(C)(C)C1CCc2nc3c(-c4cccc(C#N)c4)c(C(N)=O)[nH]c3cc2C1` (stereo not shown) [Example 119], the IC50 is over 10 µM.

Turning to `CC(C)(C)C1CCc2nc3c(-c4cccc(S(C)(=O)=O)c4)c(C(N)=O)[nH]c3cc2C1` (stereo not shown) [Example 120], the IC50 lay within 0.1 to 1 µM. Take `CC(C)(C)C1CCc2nc3c(-c4cccc(N)c4)c(C(N)=O)[nH]c3cc2C1` (stereo not shown) [Example 121]: the half-maximal inhibitory concentration (IC50) was over 10 µM. In the case of `CC(C)(C)C1CCc2nc3cc(C(=O)N[C@H](CN)c4ccccc4)[nH]c3cc2C1` (stereo partly shown) [Example 122], the IC50 lay in the range of 0.1 to 1 µM. To `CC(C)(C)C1CCc2nc3cc(C(=O)N[C@H](CN)c4cccc(N)c4)[nH]c3cc2C1` (stereo partly shown) [Example 123] belongs under 0.1 µM; to `CC(C)(C)C1CCc2nc3cc(C(=O)N[C@H](CN)c4cccc(NC(=O)c5ccco5)c4)[nH]c3cc2C1` (stereo partly shown) [Example 124], under 0.1 µM.
